Data: the Kinase Knowledgebase extract (Sharma et al. 2016)

Tests used:
Assay in all cases: Enzyme Assay
PIK3CB (Human) = PIK3CB (Human) (UniProt P42338)
PIK3CG (human) = PIK3CG (human) (UniProt P48736)
PIK3CA (human) = PIK3CA (human) (UniProt P42336)
PIK3CD (Human) = PIK3CD (Human) (UniProt O00329)
PIK3CD (Human), sequence (O00329 whole entry, looked up): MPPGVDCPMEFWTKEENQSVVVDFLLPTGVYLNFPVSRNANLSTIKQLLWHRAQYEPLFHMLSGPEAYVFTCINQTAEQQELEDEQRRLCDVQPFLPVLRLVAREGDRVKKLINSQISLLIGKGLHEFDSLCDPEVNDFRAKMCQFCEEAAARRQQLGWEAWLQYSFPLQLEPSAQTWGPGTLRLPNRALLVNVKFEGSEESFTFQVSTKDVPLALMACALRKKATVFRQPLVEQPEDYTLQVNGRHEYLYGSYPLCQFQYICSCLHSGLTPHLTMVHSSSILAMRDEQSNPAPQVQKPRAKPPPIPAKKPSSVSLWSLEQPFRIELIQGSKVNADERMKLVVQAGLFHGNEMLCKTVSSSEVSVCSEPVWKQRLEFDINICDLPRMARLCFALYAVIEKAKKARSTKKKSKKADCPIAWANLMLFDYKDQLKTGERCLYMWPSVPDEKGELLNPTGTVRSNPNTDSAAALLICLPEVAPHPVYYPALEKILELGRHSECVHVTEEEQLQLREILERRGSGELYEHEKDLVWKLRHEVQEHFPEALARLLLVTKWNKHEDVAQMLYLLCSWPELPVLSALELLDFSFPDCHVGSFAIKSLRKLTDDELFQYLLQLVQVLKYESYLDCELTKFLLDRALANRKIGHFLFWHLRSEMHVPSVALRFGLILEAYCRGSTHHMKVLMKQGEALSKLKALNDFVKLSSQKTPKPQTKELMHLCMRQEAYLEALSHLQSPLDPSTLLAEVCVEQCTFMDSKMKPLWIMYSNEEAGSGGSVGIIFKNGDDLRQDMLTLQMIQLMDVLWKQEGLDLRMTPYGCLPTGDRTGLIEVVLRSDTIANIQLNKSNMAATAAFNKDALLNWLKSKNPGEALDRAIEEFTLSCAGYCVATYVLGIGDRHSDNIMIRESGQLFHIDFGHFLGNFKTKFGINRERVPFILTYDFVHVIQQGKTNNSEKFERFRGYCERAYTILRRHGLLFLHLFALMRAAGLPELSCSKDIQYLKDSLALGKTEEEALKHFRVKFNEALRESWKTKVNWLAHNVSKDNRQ

PIK3CA (human), sequence (P42336 whole entry, looked up): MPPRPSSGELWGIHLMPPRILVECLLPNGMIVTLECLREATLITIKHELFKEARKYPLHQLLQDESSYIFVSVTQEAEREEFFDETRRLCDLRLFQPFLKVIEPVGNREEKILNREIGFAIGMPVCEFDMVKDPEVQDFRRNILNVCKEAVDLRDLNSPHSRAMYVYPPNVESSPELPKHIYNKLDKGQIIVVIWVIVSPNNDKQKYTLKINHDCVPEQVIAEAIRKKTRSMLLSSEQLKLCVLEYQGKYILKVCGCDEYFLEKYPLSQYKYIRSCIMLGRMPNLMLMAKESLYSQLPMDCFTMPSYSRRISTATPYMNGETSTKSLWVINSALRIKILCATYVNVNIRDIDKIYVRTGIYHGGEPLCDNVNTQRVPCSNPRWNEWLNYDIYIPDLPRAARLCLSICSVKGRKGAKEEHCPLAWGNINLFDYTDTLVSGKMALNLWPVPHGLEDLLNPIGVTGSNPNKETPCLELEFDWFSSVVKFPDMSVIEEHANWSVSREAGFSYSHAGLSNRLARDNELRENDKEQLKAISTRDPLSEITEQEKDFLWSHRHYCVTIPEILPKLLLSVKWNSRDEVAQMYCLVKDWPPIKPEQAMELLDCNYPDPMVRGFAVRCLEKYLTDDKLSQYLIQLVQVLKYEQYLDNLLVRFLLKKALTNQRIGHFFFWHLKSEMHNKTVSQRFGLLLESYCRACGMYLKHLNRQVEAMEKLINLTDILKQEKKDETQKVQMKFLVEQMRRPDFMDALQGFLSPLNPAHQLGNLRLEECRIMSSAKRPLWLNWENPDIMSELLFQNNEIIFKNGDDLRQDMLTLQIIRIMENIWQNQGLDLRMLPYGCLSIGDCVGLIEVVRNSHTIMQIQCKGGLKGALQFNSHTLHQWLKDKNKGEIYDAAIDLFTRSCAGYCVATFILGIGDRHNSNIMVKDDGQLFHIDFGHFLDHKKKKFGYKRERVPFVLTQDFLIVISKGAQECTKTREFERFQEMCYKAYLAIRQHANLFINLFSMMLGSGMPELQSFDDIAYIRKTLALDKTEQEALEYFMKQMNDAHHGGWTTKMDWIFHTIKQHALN
PIK3CB (Human), sequence (P42338 whole entry, looked up): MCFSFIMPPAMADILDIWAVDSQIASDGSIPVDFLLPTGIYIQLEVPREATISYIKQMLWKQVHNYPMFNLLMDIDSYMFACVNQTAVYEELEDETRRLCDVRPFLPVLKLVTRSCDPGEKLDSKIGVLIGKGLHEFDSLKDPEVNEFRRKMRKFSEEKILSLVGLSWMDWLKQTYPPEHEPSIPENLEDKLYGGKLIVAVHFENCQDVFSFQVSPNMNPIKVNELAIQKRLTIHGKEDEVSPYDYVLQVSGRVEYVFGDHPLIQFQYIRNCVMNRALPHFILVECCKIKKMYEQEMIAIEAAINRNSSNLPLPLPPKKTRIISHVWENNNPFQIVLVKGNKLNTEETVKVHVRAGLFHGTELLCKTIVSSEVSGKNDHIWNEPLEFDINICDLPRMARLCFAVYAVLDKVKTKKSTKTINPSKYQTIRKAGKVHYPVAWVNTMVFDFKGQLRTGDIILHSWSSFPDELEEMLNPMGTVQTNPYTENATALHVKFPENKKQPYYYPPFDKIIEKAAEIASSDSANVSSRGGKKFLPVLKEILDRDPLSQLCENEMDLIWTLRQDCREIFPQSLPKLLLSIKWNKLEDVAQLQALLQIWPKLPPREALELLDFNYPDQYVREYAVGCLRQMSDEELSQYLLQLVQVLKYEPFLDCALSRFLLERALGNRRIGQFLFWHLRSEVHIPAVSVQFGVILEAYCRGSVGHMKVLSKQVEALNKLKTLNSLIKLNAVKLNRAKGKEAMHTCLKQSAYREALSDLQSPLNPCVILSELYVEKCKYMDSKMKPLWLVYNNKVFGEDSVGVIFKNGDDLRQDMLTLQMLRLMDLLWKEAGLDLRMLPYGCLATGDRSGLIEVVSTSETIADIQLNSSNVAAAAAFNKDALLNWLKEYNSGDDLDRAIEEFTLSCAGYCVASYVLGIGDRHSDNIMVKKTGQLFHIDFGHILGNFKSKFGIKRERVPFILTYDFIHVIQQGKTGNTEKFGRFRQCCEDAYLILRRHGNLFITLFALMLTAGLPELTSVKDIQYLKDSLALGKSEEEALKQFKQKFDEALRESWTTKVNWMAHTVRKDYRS
PIK3CG (human), sequence (P48736 whole entry, looked up): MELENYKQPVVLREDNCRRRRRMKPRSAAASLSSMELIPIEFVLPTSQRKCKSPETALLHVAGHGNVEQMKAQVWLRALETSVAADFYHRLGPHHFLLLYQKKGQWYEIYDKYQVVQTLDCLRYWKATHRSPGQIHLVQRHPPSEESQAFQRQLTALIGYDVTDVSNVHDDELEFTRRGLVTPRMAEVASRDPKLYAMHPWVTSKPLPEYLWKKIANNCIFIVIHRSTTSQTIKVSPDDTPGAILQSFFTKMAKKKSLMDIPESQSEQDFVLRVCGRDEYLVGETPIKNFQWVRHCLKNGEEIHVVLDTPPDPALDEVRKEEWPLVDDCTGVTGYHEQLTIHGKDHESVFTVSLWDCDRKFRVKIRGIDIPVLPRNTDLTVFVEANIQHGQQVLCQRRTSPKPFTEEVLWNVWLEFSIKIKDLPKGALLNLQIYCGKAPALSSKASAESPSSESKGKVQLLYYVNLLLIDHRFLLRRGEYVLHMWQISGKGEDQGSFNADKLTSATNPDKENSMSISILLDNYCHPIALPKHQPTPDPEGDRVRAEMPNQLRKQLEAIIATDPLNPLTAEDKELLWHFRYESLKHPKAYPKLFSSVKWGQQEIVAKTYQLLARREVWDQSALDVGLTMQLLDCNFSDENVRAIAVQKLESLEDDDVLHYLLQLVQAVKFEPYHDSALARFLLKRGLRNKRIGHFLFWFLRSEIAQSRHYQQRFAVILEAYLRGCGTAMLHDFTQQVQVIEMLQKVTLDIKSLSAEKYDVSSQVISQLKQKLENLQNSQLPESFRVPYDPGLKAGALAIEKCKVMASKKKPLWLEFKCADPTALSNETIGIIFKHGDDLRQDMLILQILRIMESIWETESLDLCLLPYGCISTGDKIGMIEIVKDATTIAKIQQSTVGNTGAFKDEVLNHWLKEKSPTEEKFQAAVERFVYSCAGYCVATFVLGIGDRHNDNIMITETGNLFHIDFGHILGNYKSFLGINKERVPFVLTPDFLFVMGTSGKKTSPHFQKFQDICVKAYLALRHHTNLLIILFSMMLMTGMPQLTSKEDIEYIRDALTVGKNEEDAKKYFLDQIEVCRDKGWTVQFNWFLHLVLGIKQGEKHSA

IC50 (PIK3CB (Human)) | IC50 (PIK3CG (human)) | IC50 (PIK3CA (human)) | IC50 (PIK3CD (Human)) | SMILES
> 10000 nM | 100 to 1000 nM | > 10000 nM | < 100 nM | Cc1cccc2cc([C@H](C)Nc3nc(N)ncc3F)n(-c3ccccc3)c(=O)c12
> 10000 nM | 100 to 1000 nM | > 10000 nM | 100 to 1000 nM | Cc1cccc2cc([C@H](C)Nc3cc(N)nc(N)n3)n(-c3ccccc3)c(=O)c12
> 10000 nM | 100 to 1000 nM | > 10000 nM | < 100 nM | Cc1cccc2cc(C(C)Nc3ncnc4[nH]cnc34)n(-c3c(F)cccc3F)c(=O)c12 (stereo unspecified)
> 10000 nM | 100 to 1000 nM | > 10000 nM | < 100 nM | Cc1cccc2cc(C(C)Nc3ncnc4[nH]cnc34)n(-c3cc(F)cc(F)c3)c(=O)c12 (stereo unspecified)
